Experimental data published in patent US12544372B2, “Methods of treating rheumatoid arthritis, chronic spontaneous urticaria, and systemic lupus erythematosis using an inhibitor of Bruton's tyrosine kinase” (Genentech, Inc., priority 2019, dated 2026).
Marks after values point to notes of the source that are not given here.

What was measured:
Type in all cases: in vivo, human
[1] = system: C4; assay: SLE study biomarker: C4
Protocol: The following biomarkers were explored according to the biomarker objectives provided above in the Study Objectives. In Table 13, biomarkers are measured at baseline and subsequent timepoints during and after treatment. One set of biomarkers evaluated is the plasmablast signature. Plasmablasts are rapidly dividing, short-lived antibody secreting cells. While they represent a small proportion of B cells in the blood, they are responsible for a majority of antibody transcripts found in whole blood mRNA. The plasmablast signature comprises the biomarkers IgJ, Mzbl, and Txndc5. The gene expression of IgJ, Mzbl, and Txndc5 may be measured, for example, a polypeptide expression by evaluating the level of mRNA for said gene in a patient's blood relative to a reference level.

[2] = system: patients with moderate to severe active rheumatoid arthritis; assay: Phase II RA study, Cohort 2 (inadequate response or intolerance to TNF therapy): clinical efficacy; details: Cohort 2, 200 mg BID
Description: A Two-Cohort Randomized Phase II, Double-Blind, Parallel Group Study in Patients with Active Rheumatoid Arthritis Evaluating the Efficacy and Safety of Fenebrutinib Compared with Placebo and Adalimumab in Patients with an Inadequate Response to Previous Methotrexate Therapy (Cohort 1) and Compared with Placebo in Patients with an Inadequate Response or Intolerance to Previous TNF Therapy (Cohort 2)
The study was a multicenter, Phase II, randomized, double-blind, placebo-controlled, active comparator (Cohort 1 only), parallel-group, dose-ranging study to evaluate the efficacy and safety of fenebrutinib in patients with moderate to severe active RA and an inadequate response to previous MTX therapy (Cohort 1) or MTX and TNF therapy who may have also had exposure to no more than one non-TNF inhibitor biologic (Cohort 2). Moderate to severe active RA was defined by ≥6 tender/painful joints on motion (68 joint count) and ≥6 swollen joints (66 joint count) at both screening and Day 1 (randomization), as well as a high sensitivity C-reactive protein (hsCRP)≥0. 400 mg/dL for Cohort 1 a hsCRP≥0.650 mg/dL for Cohort 2 at screening.
The study enrolled 578 patients. In Cohort 1, 480 MTX-IR patients were randomized to placebo (110 patients), ADA (111 patients), or one of three doses of fenebrutinib: 50 mg QD (40 patients), 150 mg QD (109 patients), or 200 mg BID (110 patients). In Cohort 2, 98 TNF-IR patients were randomized to placebo or 200 mg BID fenebrutinib. […]
ACR Assessments. The ACR's definition for calculating improvement in RA (ACR20) is calculated as a 20% improvement in tender and swollen joint counts and a 20% improvement in 3 of the 5 remaining ACR-core set measures: patient and physician global assessments, pain, disability, and an acute-phase reactant. Similarly, ACR50 and ACR70 are calculated with the respective percent improvements. […]

[3] = system: CD3+ T cells; assay: RA study: CD3+ T cells (flow cytometry); details: cohort 1 and cohort 2, week 1
Protocol: Biomarkers were evaluated in serum or plasma samples at baseline and weeks 1, 4, and 12 in patients with available samples (cohort 1: n=438; cohort 2: n=86). The biomarkers evaluated in this assessment were chemokine [C-C motif] ligand 4 (CCL4), IL-6, and TNF-like cytokine 1A (TL1A). Total IgM, IgG, rheumatoid factor IgM autoantibody (RF), CCL4, TL1A, IL-6, and anti-CCP autoantibody (ACPA IgG) levels were analyzed with immunoassays. CD19^+ B cells and CD3^+ T cells were measured by flow cytometry. The proportion of patients achieving an ACR50 response at week 12 and the change in DAS28 score by week 12 were assessed relative to seropositivity (RF and/or ACPA positive at baseline) or baseline levels of RF in both cohorts. To select which biomarkers to evaluate in this trial, BTK-dependent myeloid biomarkers were identified using peripheral blood CD14^+ monocytes stimulated with immune-complexes in the presence or absence of a BTK inhibitor. In brief, the expression levels of genes in human monocytes were assayed under conditions of no stimulation; with human serum albumin immune complex stimulation; with stimulation and a low concentration of a BTK inhibitor with similar characteristics to fenebrutinib; or with stimulation and a high concentration of the BTK inhibitor. […] Genes annotated with cytokine activity were selected. The color bar represents normalized gene expression.

[4] = RA study: safety
Description: Investigator conducted assessments: Joint counts and Physician's Global Assessment of Arthritis visual analog scale (VAS), safety assessments (adverse events, vital signs, concomitant medications, review of laboratory data). For Cohort 1 only: SC comparator drug injection; For Cohorts 1 and 2: Administration of oral study drug.

SMILES: C[C@H]1CN(C2COC2)CCN1c1ccc(Nc2cc(-c3ccnc(N4CCn5c(cc6c5CC(C)(C)C6)C4=O)c3CO)cn(C)c2=O)nc1 [fenebrutinib, (S)-2-(3′-(hydroxymethyl)-1-methyl-5-((5-(2-methyl-4-(oxetan-3-yl)piperazin-1-yl)pyridin-2-yl)amino)-6-oxo-1,6-dihydro-[3,4′-bipyridin]-2′-yl)-7,7-dimethyl-2,3,4,6,7,8-hexahydro-1H-cyclopenta[4,5]pyrrolo[1,2-a]pyrazin-1-one]
- C4, Median Change from Baseline at Week 48 ([1]; 150 mg QD): +0.02* g/L
- C4, Median Change from Baseline at Week 48 ([1]; 200 mg BID): +0.01* g/L
- DAS 28-3 (CRP) Adjusted Mean ([2]; Week 12): −1.96
- ACR50 Weighted Difference vs Placebo ([2]; Week 12 Day 84): 13.85
- DAS 28-3 (CRP) Difference (d) ([2]; versus placebo, Week 12): −0.76
- CD3+ T cells relative to placebo [3]: +10-15%
- overall safety profile ([4]; RA study): comparable to placebo and ADA
- Grade 3 LFT elevations ([4]; fenebrutinib arms versus placebo and ADA): numerically more
